This is an account of results in BindingDB's records for doi:10.1021/jm00039a013 (Pfizer, 1994).

For orientation: IC50 means the concentration needed to halve the response being measured. A high value points to a need for much substance.

A short description of the assay: Inhibitory activity against acetylcholinesterase in mice at the dose of 4.8 mg/kg via intraperitoneal administration.

In the case of `CCCCCCCNC(=O)Oc1ccc2c(c1)[C@]1(C)CCN(C)[C@@H]1N2C` [(3aS,8aR)-1,3a,8-trimethyl-1H,2H,3H,3aH,8H,8aH-pyrrolo[2,3-b]indol-5-yl N-heptylcarbamate], the IC50 was 148 nM.
